Reference: patent EP0361510B1, “Antitumor substance, process for preparing the same, and anticancer agent containing the same” (MEIJI SEIKA KAISHA LTD., priority 1988, dated 1990)
Converted amounts (≈) assume the structure as drawn. Read-outs that look alike come from different tables or passages of the source.

Assays:
[1] = tested on: Mouse leukemia P-388 cells; experiment: Antitumor activity in mice transplanted intraperitoneally with P-388 cells; assay type: in vivo, BDF₁ mice; settings: intraperitoneal, 24 hours after transplantation, hydrochloride
Experimental: Antitumor activity of hydrochlorides of the compounds of the present invention was determined in the following manner.
Mouse leukemia P-388 cells maintained in the abdominal cavity of BDF₁ mouse were taken out and were suspended in physiological saline to give a cell concnetration of 1 × 10⁶ cells/0.2 mℓ. The cell suspension (0.2 mℓ) was transplanted to the abdominal cavity of 5-week-old male BDF₁ mice. The compounds of the present invention as shown in Table 3 was dissolved in 0.2 mℓ of physiological saline and was intraperitoneally administered to the mouse 24 hours after the transplantation of P-388 cells. No compound was administered to the mice of the control group. The T/C% value was calculated in accordance with the following formula. [formula]

[2] = tested on: Mouse leukemia P-388 cells; experiment: Cytotoxicity on P-388 cells (MTT assay); assay type: cell-based; settings: for IC₅₀: 72 hours incubation; for IC50: Mus musculus, P388, 72 hours incubation, read-out: IC₅₀
Experimental: Cytotoxicity of the compounds according to the present invention was determined by MTT assay in the following manner.
Mouse leukemia P-388 cells were suspended in RPMI medium supplemented with 10% fetal calf serum and this suspension was used to inoculate the 96-well microplate to give a cell concentration of 2 × 10³ cells/well. The compound shown in Table 2 was dissloved in RPMI medium and add to each well for the test group, while no compound was added to wells of the control group. Incubation was carried out at 37°C for 72 hours at 5% CO₂. Then, MTT (3-(4,5-dimethylthiazol-2-yl)-2,5-diphenyl tetrazolium bromide) was added to each well to cause formation of formazan. The resulting formazan was dissolved by adding sodium dodecyl sulfate. Absorbance at 577-630 nm of each well was measured by the ELISA analyzer and 50% ihibitory concentration (IC₅₀) of each compound was calculated from the absorbance ratio of the test group to the control group.

[3] = Acute toxicity (LD50) in mice; settings: mouse, in vivo, hydrochloride, read-out: LD₅₀
Experimental: The hydrochlorides of the compounds of the present invention as shown in Table 4 were intraperitoneally or intravenously administered to mice and acute toxicity (LD₅₀) of each compound was measured.

[4] = mouse, i.v.; cited from earlier work

With “3′,11-O-diisobutyryl SF2587 [Compound 8]” the “Anti-P388 Activity (T/C%)” value ([1]; Dose 2.5 mg/kg) was 113%, the “Anti-P388 Activity (T/C%)” value ([1]; Dose 5 mg/kg) was 144% and the “Anti-P388 Activity (T/C%)” value ([1]; Dose 10 mg/kg) was 175%. The “Anti-P388 Activity (T/C%)” value ([1]; Dose 20 mg/kg) was >488%, the “Anti-P388 Activity (T/C%)” value ([1]; Dose 40 mg/kg) was 69% and the IC₅₀ [2] was 23.1 ng/mL.
With 3′,11-O-divaleryl SF2587 [Compound 9] the “Anti-P388 Activity (T/C%)” value ([1]; Dose 2.5 mg/kg) was 96%, the “Anti-P388 Activity (T/C%)” value ([1]; Dose 5 mg/kg) was 117% and the “Anti-P388 Activity (T/C%)” value ([1]; Dose 10 mg/kg) was 147%. For the same compound, the “Anti-P388 Activity (T/C%)” value ([1]; Dose 20 mg/kg) was 189%, the “Anti-P388 Activity (T/C%)” value ([1]; Dose 40 mg/kg) was 227% and the IC₅₀ [2] was 34.3 ng/mL.
In the case of 3′-O-Butyryl SF2587 [Compound 5], the “Anti-P388 Activity (T/C%)” value ([1]; Dose 1.25 mg/kg) is reported as 158%, the “Anti-P388 Activity (T/C%)” value ([1]; Dose 2.5 mg/kg) is reported as 186% and the “Anti-P388 Activity (T/C%)” value ([1]; Dose 5 mg/kg) is reported as 72%. It also gave an IC₅₀ [2] of 17.8 ng/mL.
In the case of “3′-O-acetyl SF2587 Substance [Compound 1]”, the “Anti-P388 Activity (T/C%)” value ([1]; Dose 0.25 mg/kg) is reported as 124%, the “Anti-P388 Activity (T/C%)” value ([1]; Dose 0.5 mg/kg) is reported as 134% and the “Anti-P388 Activity (T/C%)” value ([1]; Dose 1.0 mg/kg) is reported as 144%. The IC₅₀ [2] was 19.4 ng/mL.
For 3′-O-isobutyryl SF2587 [Compound 7], the IC₅₀ [2] was 55.2 ng/mL.
For 3′-O-propionyl SF2587 [Compound 3], the IC₅₀ [2] was 19.9 ng/mL.
11-O-Butyryl SF2587 [Compound 10] gave an IC₅₀ [2] of 16.0 ng/mL.
For `CC(=O)Oc1c(C2CC(C)(N(C)C)C(OC(C)=O)C(C)O2)ccc2c1C(=O)c1c(cc(C)c3c(=O)cc(C4(C)OC4C4OC4C)oc13)C2=O` (centres unmarked) [Compound 2, 3′, 11-O-acetyl-SF2587], the “Anti-P388 Activity (T/C%)” value ([1]; Dose 3.5 mg/kg) was 163%, the “Anti-P388 Activity (T/C%)” value ([1]; Dose 7 mg/kg) was >200% and the “Anti-P388 Activity (T/C%)” value ([1]; Dose 14 mg/kg) was 70%. It also gave an IC50 [2] of 0.0231 µg/mL (≈ 0.0343 µM), an LD50 ([3]; ip, injection route i.p.) of 16 mg/kg and an LD50 ([3]; iv, injection route i.v.) of 23.5 mg/kg.
With `CCC(=O)Oc1c(C2CC(C)(N(C)C)C(OC(=O)CC)C(C)O2)ccc2c1C(=O)c1c(cc(C)c3c(=O)cc(C4(C)OC4C4OC4C)oc13)C2=O` (centres unmarked) [Compound 4, 3′,11-O-dipropionyl SF2587] the “Anti-P388 Activity (T/C%)” value ([1]; Dose 1.56 mg/kg) was 130%, the “Anti-P388 Activity (T/C%)” value ([1]; Dose 3.13 mg/kg) was 133% and the “Anti-P388 Activity (T/C%)” value ([1]; Dose 6.25 mg/kg) was 217%. The “Anti-P388 Activity (T/C%)” value ([1]; Dose 12.5 mg/kg) was >449%, the “Anti-P388 Activity (T/C%)” value ([1]; Dose 25 mg/kg) was 71% and the IC50 [2] was 0.0181 µg/mL (≈ 0.0258 µM). It also gave an LD50 ([3]; ip, injection route i.p.) of 40 mg/kg.
For `CCCC(=O)Oc1c(C2CC(C)(N(C)C)C(OC(=O)CCC)C(C)O2)ccc2c1C(=O)c1c(cc(C)c3c(=O)cc(C4(C)OC4C4OC4C)oc13)C2=O` (centres unmarked) [Compound 6, 3′-11-O-dibutyryl SF2587], the “Anti-P388 Activity (T/C%)” value ([1]; Dose 1.25 mg/kg) was 96%, the “Anti-P388 Activity (T/C%)” value ([1]; Dose 2.5 mg/kg) was 113% and the “Anti-P388 Activity (T/C%)” value ([1]; Dose 5 mg/kg) was 144%. The “Anti-P388 Activity (T/C%)” value ([1]; Dose 10 mg/kg) was 186%, the “Anti-P388 Activity (T/C%)” value ([1]; Dose 20 mg/kg) was >485% and the IC50 [2] was 0.0231 µg/mL (≈ 0.0317 µM). For the same compound, the LD50 ([3]; ip, injection route i.p.) was 120 mg/kg.
In the case of `Cc1cc2c(c3oc(C4(C)OC4C4OC4C)cc(=O)c13)C(=O)c1c(ccc(C3CC(C)(N(C)C)C(O)C(C)O3)c1O)C2=O` (centres unmarked) [SF2587], the LD₅₀ [4] is given as “about 5 mg/kg”.
